Results: patent US11000555B2, “Method for preparing a limax compound and therapeutic use thereof” (GUANGXI JIUFU BIOTECHNOLOGY CO., LTD, priority 2017, dated 2021)
Structures can show the parent of a compound that is named as a salt. Marks after values point to notes of the source that are not given here.

Columns and labels:
mice [1] = experiment: Inducing the mice to sleep by a subthreshold dose of pentobarbital sodium; format: in vivo, Kunming mice; details: Estazolam 2 mg/kg; pentobarbital sodium 30 mg/kg ip; n = 20
Description: Eighty Kunming mice, half males and half females, were fasted for 12 h but free to drink water. The mice were randomly divided into four groups: a blank control group, a low does Compound group (0.4 g/kg, ig), a high dose Compound group (0.8 g/kg, ig) and a positive drug control group (Estazolam, 2 mg/kg). each group of mice was administered according to the above doses (ig), and the blank control group was given the same volume of normal saline. Forty-five minutes later, each mouse was given (ip) 30 mg/kg pentobarbital sodium, and the number of mice falling asleep within 15 min was recorded by taking the absence of righting reflex more than 1 min as the indicator of falling asleep.

mice [2] = experiment: Mouse spontaneous activity test; format: in vivo, Kunming mice
Description: Forty Kunming mice, half males and half females, were fasted for 12 h but free to drink water. The mice were randomly divided into four groups: a blank control group, a low does Compound group (0.4 g/kg, ig), a high dose Compound group (0.8 g/kg, ig) and a positive drug control group (Estazolam, 2 mg/kg). The mice were placed into the YLS-1A multifunctional recorder for spontaneous activities of small animals. After 5 minutes of adaptation, the number of the mice's spontaneous activities before administration were recorded, and the recording lasted for 10 minutes. The room was kept quiet during recording, at a room temperature of 20-24° C. After this, each group of mice was administered according to the above doses, and the number of spontaneous activities within 10 min were recorded 45 min later. The blank control group was given the same volume of normal saline (ig).

morphine-dependent mice = experiment: Therapeutic effect on naloxone-induced withdrawal symptoms of morphine-dependent mice; format: in vivo, Kunming mice; details: methadone 20 mg/kg ig
Description: The model of morphine-dependent mice was replicated by the dose-increasing method. […] Group (1) was a blank control group, injected subcutaneously (sc) with normal saline (0.2 ml/10 g), and groups (2)˜(5) were used to replicate the model of morphine-dependent mice by the dose-increasing method.
The administration continued for 3 days for each group. Mice were free to drink and eat. Naloxone (8.0 mg/kg, ip) was given 1 h after administrations on d1 and d3 during the treatment to induce withdrawal symptoms, and jumping reaction in 30 min and body weights before and after the inducement were observed.

[3] = test system: morphine-induced place preference of mice; experiment: Conditioned place preference of morphine-induced mice; format: in vivo, Kunming mice
Description: The mice were acclimatized for 3 days, the natural place preference time of the mice was measured before the administration, so that the mice with obvious preference on one cuboid of the experimental box were excluded to clear the effect of unconditional place preference on the results. […] The observation was conducted under sound insulation conditions. […] Thus, the white cuboid was used as the non-preferred side (i.e., the companion box).
After 6 consecutive days of training and administration, the mice developed conditioned place preference.
Each group was administered for 3 consecutive days.

mice [4] = experiment: Hot plate test of analgesic effect; format: in vivo, Kunming mice; details: hot plate 55° C.; for Pain threshold: methadone 20 mg/kg, cut-off 60 seconds
Description: Kunming mice, female, were selected. And a selection among them was conducted prior to the test. The hot plate was adjusted to 55° C.±0.5° C., the female mice were placed on the hot plate, and the duration (in seconds) required from placing the mice on the hot plate until the mice licked their feet as the normal pain threshold of the mice. All those who licked their feet within 5 s or after 30 s and jumped were abandoned. Forty qualified mice were selected and randomly divided into 4 groups: a blank control group, a low dose Compound group, a high dose Compound group, and a positive control group, 10 mice per group. The normal pain threshold of each mouse was measured repeatedly, and the average of two measurements was taken as the pre-administration pain threshold of the mouse. Each group was then administered (at doses and by delivery routes as above), 0.2 ml per 10 g body weight. The pain threshold of each group was measured 60 min and 120 min after administration. If a mouse remained unresponsive for more than 60 seconds on the hot plate, its pain threshold was calculated as 60 seconds.

mice [5] = experiment: Acetic acid writhing test of mice; format: in vivo, Kunming mice; details: methadone 20 mg/kg, delivery route im; 0.6% acetic acid ip; in 20 min
Description: Forty Kunming mice, male, were fasted for 12 h before the experiment but free to drink water. They were randomly divided into 4 groups: a blank control group, a low dose Compound group, a high dose Compound group, and a positive control group. […] The mice were administered (ig) at a low dose (0.4 g/kg) and a high dose (0.8 g/kg) of the compound, at a volume of 0.2 ml per 10 g body weight. The positive control group was administered (ip) methadone (20 mg/kg) and the blank control group was given (ig) the same volume of normal saline. Forty-five minutes after administration, each mouse was given (ip) 0.6% acetic acid, 0.2 ml for each. The mice were then observed for writhing reaction, with abdominal contraction and hind limb extension or hip elevation regarded as positive. Times of writhing in 20 min were recorded starting from 5 min after acetic acid injection. The analgesic effect was evaluated by taking completely inhibiting writhing reaction induced by acetic acid as an indicator.

mice [6] = experiment: Physical dependence test: induced withdrawal test for the mice; details: morphine hydrochloride sc twice a day, increasing 25 to 150 mg/kg daily, 7 days, naloxone 8 mg/kg ip
Description: The daily doses were 25, 50, 75, 100, 125, 150 mg/kg according to the dose increasing principle, increased day by day, reached 150 mg/kg on day 6 which was adopted the same on day 7. The compound group was administered (ig) twice daily (8:00 am, 8:00 pm) at daily doses of 0.6, 1.2, 1.8, 2.4, 3.0, 3.6 g/kg. The dose increased every day from 0.6 g/kg to 3.6 g/kg on day 6 which was adopted the same on day 7. The negative control group was given (ig) the same volume of vegetable oil every day at the same time and for the same times as the compound group. On day 7, naloxone (8 mg/kg, ip) was given to each group of mice to induce withdrawal. The jump reaction within 30 min and weight change one hour before and after inducement were observed. Weight loss value=weight before inducement−weight after inducement.

rats = experiment: Physical dependence test: induced withdrawal test for the rats; details: morphine hydrochloride sc twice a day, increasing 5 to 60 mg/kg, 7 days; naloxone 5 mg/kg ip day 8
Description: The compound group was administered (ig) twice a day according to the dose increasing principle, at daily doses of 0.5, 1.0, 1.5, 2.0, 2.5, 3.0 g/kg. The dose was increased every day from 0.5 g/kg to 3.0 g/kg on day 6 which was adopted the same on day 7. The negative control group was given (ig) the same volume of vegetable oil per day at the same time and for the same times as the compound group. On day 8, the rats in each group were given naloxone (5 mg/kg, ip) to induce withdrawal, and the withdrawal status of the rats within 30 min and the weight change one hour before and after the inducement were observed. The evaluation criteria of withdrawal symptoms of rats were established by referring to the Tomoji Yanagita evaluation criteria and our pre-experimental results (see Appendix Table 17). The withdrawal scores and weight loss values of each group of rats were statistically processed. Weight loss value=weight before inducement−weight after inducement.

Clc1ccc2c(c1)C(c1ccccc1)=NCc1nncn1-2 [Estazolam, reference compound]
Number of the mice showing disappearance of righting reflex (mice [1]): 18 per group | Number of spontaneous activities (mice [2]; After administration (45 min), Estazolam 2 mg/kg): 45.4 ± 34.43**^ΔΔ per 10 min | Number of spontaneous activities (mice [2]; Before administration, Estazolam group): 136.6 ± 43.35 per 10 min

CCC(=O)C(CC(C)N(C)C)(c1ccccc1)c1ccccc1 (stereo not drawn) [methadone, Methadone hydrochloride, reference compound]
Numbers of jumping reactions of mice (mice of n = 10) (morphine-dependent mice; d 1): 10 | Numbers of jumping reactions of mice, percentage (morphine-dependent mice; d 1): 100% | Weight change: body weights of mice before and after induced withdrawal (morphine-dependent mice; d 1): 0.22 ± 0.19 g | Numbers of jumping reactions of mice (mice of n = 10) (morphine-dependent mice; d 3): 10 | Numbers of jumping reactions of mice, percentage (morphine-dependent mice; d 3): 100% | Weight change: body weights of mice before and after induced withdrawal (morphine-dependent mice; d 3): 0.46 ± 0.23 g | Duration of mice staying in companion box ([3]; After administration, methadone 20 mg/kg ig 3 days + morphine 9 mg/kg sc, 15 min observation): 499.6 ± 123.26*^ΔΔ s | Duration of mice staying in companion box ([3]; Before administration (base line), methadone 20 mg/kg + morphine 9 mg/kg group): 333.7 ± 114.95 s | Pain threshold (mice [4]; 60 min): 58.4 ± 9.05 s | Pain threshold (mice [4]; 120 min): 51.5 ± 10.11 s | Pain threshold before administration (mice [4]; base line, methadone group): 24.4 ± 5.72 s | Times of writhing (mice [5]): 8.7 ± 3.74

CN1CC[C@]23c4c5ccc(O)c4O[C@H]2[C@@H](O)C=C[C@H]3[C@H]1C5.Cl [Morphine, Morphine hydrochloride, reference compound]
Weight loss (mice [6]): 0.57 ± 0.25 g | Number of jumps (mice [6]; 30 min): 64.10 ± 15.29 | Induced withdrawal symptom score (rats): 76.9 ± 14.53
